We go through two substances from patent publication US11597936B2, “Recombinant Dgkk gene for fragile X syndrome gene therapy” (UNIVERSITE DE STRASBOURG, priority 2016, dated 2023).

One data set relates to CA1 pyramidal neurons. Briefly: Dendritic spine morphology and dynamics in hippocampal organotypic slice cultures. The class given is cell-based, mouse. The text has this:
A short hairpin RNA designed to target Dgkk (shRNA Dgkk, 5′-[…], SEQ ID No: 6) and the selected shRNA-scramble sequence (5′-[…], SEQ ID No: 7) that has no match in silico in the mouse genome, were cloned under the control of the mU6 promoter into a pAAV-MCS derived plasmid expressing enhanced green fluorescent protein (EGFP) under the control of a CMV promoter. Overexpression of Dgkk was achieved by cloning HA-tagged Δ5′reg-Dgkk under the control of the human Synapsin-1 gene promoter replacing EGFP in the control plasmid pENN.AAV.hSynapsin1.EGFP.RBG (provided by the Penn Vector Core at University of Pennsylvania). Recombinant adeno-associated virus serotype 9 (AAV9) co-expressing EGFP and shRNA (AAV9-EGFP-shRNA-Dgkk and control AAV9-EGFP-shRNA-scramble) as well as AAV9 expressing HA-Dgkk or EGFP (AAV9-hSynapsin1-HA-Dgkk and control AAV9-hSynapsin1-EGFP) were generated. AAV production was carried out using the AAV Helper-Free system (Agilent Technologies) with some modifications. AAV9 vectors were generated by triple transfection of 293T/17 cell line using either pAAV-EGFP-shRNA-Dgkk or pAAV-EGFP-shRNA-scramble, pAAV-hSynapsin1-HA-Δ5′reg-Dgkk or pENN.AAV.hSynapsin1.EGFP.RBG together with pAAV2/9 (Penn Vector Core) containing cap genes of AAV serotype 9 and pHelper. Two days after transfection, cells were collected, lysed by three freeze/thaw cycles in dry ice-ethanol and 37° C. baths, further treated with 100 U/ml Benzonase (Novagen) for 30 min at 37° C. and clarified by centrifugation. Viral vectors were purified by iodixanol (Optiprep™, Axis Shield) gradient ultracentrifugation followed by dialysis and concentration against PBS containing 0.5 mM MgCl2 using centrifugal filters (Amicon Ultra-15 100 K). Viral particles were quantified by real time PCR using a linearized standard plasmid pAAV-EGFP.
Hippocampal organotypic slice cultures (400 μm thick) were prepared from postnatal 5-6 day old C57BL/6 Fmr1+/y or its Fmr1−/y littermate mice using a protocol approved by the Geneva veterinary office and maintained under culture conditions as described (De Roo M et al, 2008, Cereb Cortex, 18(1):151-161). Transfection was carried out at DIV7 with a biolistic method (Helios Gene Gun, Bio-Rad) using gold beads coated with mRFP and either pAAV-EGFP-shRNA-Dgkk, pAAV-EGFP-shRNA-scramble, pAAV-hSynapsin1-EGFP or pAAV-hSynapsin1-HA-[…]. Repetitive confocal imaging was performed as previously described (De Roo M et al, 2008, Cereb Cortex, 18(1):151-161). Briefly, dendritic segments of CA1 transfected neurons (30-40 μm in length) were imaged from DIV12 to DIV15 (at 0, 5, 24, 48 and 72 hours) using an Olympus Fluoview 300 system and analysis of the Z-stacked images so obtained was performed using Osirix software.

In the next data set the test system is Cos-1 cells. Briefly: Western blot (anti-HA) of Dgkk constructs in Cos-1 cells, siFmr1 versus siRNA control. It counts as cell-based. The settings on record: siFmr1 vs siCtrl, HA signal normalized to GAPDH. As to the method:
COS cells (ATCC® CRL-1650™) were grown in DMEM supplemented with 10% fetal calf serum, 1 g/l glucose in the presence of antibiotics at 37° C. in 5% CO2. The day before transfection, 4×10^4 cells were plated into 24-well format plates in 500 μl of antibiotic-free medium.
Transfections of sh-RNAs were performed in triplicate with Lipofectamine 2000 (Invitrogen, Carlsbad, Calif.) on 60 000 cells as directed by the manufacturer with 20 pmol of siRNA (Control or On Target plus Smart Pool mouse FMR1, Thermo) in a final volume of 600 μl. Twenty-four hours later, 0.6 μg of a plasmid construction and 20 pmol of shRNA were co-transfected as above. Fourty-eight hours later, cells washed twice in PBS were lysed directly in the loading buffer (100 mM Tris-HCl, pH 6.8, 4% SDS, 30% glycerol, 1.4 M ß-mercaptoethanol, and bromophenol blue) for 3 min at 95° C. Proteins were analyzed on a 10% SDS-polyacrylamide gel and immunoblotted onto PVDF (Millipore) in Tris-glycine-SDS/20% ethanol buffer for 1 h at 200 mA. […]
In a second series of experiments, the inventors aimed to determine which part of the 5′ region of Dgkk is important in the control of Dgkk expression by FMRP. […] Then, as previously described, Cos-1 cells were transfected by these constructs in the presence or absence of Fmr1 siRNA and the expression of the constructs was analyzed by western-blot.
On the technique in general: In western blotting, separated proteins are transferred to a membrane and probed.

Setting [1] is: versus shRNA-scramble transfected cells.

On to “shRNA-Dgkk: short hairpin RNA designed to target Dgkk (SEQ ID No: 6), in pAAV plasmid expressing EGFP (guide GGAATGCACTACTGGTATTCC; shRNA hairpin expressed from pAAV-EGFP vector)”, for which the spine density entry in the data set with CA1 pyramidal neurons (CA1 pyramidal neurons, biolistic transfection) is “Absence of changes”. Moreover, in the data set with CA1 pyramidal neurons (setting [1]), the “lost spines per 24 h” value is “Increase”, the multi-head spines result is “Increase”, the mushroom spines entry was “decrease” and the “new spine formation per 24 h” value is given as “Increase”.
Regarding “Dgkk-FL: plasmid carrying all mouse Dgkk exons, its 5′UTR, its 3′UTR and a HA tag (SEQ ID No: 8)”, the “reduction of the expression level of the construct when FMRP expression is reduced” value with Cos-1 cells is reported as “about 70%”.
